Test results as given in PMC9454393 (Scientific Reports, 2022).
Read-outs that look alike come from different tables or passages of the source.

How the values were obtained:
AChE [1] = biological target: T1, AChE (Homo sapiens, UniProt P22303); assay: biochemical; details: mean ± SD
Method: (§1) A previously described modified protocol of Ellman's spectrophotometric assay in clear flat-bottomed, 96-well plates, was used. […] The absorbance of each well was measured at 415 nm using a microplate reader. […]

BChE = BChE (Homo sapiens, UniProt P06276); assay: BChE inhibition, modified Ellman's spectrophotometric assay; assay type: biochemical; details: mean ± SD
Chain of BChE (P06276 29-602): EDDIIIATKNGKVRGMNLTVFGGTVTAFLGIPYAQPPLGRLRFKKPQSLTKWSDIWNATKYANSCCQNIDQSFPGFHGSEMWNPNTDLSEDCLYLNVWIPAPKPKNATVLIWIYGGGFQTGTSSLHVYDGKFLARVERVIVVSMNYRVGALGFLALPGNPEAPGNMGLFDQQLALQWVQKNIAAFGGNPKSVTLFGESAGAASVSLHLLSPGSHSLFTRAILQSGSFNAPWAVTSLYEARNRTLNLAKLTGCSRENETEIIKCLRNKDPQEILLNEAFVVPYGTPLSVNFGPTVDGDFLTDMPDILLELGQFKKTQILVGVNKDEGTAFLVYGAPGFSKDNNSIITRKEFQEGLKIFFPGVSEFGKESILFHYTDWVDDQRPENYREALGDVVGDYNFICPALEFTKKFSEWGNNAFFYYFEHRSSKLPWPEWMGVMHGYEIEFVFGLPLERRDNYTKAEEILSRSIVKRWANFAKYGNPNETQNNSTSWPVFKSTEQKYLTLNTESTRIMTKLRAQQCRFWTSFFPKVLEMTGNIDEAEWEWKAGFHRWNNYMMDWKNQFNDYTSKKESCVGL
Method: as §1

AChE [2] = biological target: T1, AChE; details: cited from earlier work
[3] = 50 µM compound, NA = not active

T1 sequence (P22303 32-614): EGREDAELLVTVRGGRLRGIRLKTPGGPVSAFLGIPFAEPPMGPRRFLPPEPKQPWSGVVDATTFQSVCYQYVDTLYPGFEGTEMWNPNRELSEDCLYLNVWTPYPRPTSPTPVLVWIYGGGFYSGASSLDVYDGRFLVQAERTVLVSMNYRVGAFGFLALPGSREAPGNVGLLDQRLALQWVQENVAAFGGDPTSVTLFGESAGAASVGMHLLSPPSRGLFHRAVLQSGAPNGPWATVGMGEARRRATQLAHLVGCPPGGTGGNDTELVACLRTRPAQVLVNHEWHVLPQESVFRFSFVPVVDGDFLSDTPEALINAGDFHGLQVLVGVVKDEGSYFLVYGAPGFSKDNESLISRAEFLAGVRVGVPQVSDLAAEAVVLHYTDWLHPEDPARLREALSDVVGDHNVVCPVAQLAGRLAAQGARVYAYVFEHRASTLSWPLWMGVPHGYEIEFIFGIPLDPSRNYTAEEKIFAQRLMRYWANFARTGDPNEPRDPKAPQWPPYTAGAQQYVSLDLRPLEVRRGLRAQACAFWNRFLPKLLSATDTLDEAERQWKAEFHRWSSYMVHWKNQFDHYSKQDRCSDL

Compound | inhibition at 50 µM (AChE [1]; [3]) [%] | inhibition at 50 µM (BChE; [3]) [%] | also measured
N#CC(C(N)=O)c1c(-c2ccc(Cl)cc2)[nH]c(N)c1[N+](=O)[O-] (centres unmarked) [Compound 4w, 2-(5-amino-2-(4-chlorophenyl)-4-nitro-1H-pyrrol-3-yl)-2-cyanoacetamide] | 48.6 ± 4.53 | 33.5 ± 3.4 | –
CCOC(=O)C(C(N)=O)c1c([N+](=O)[O-])c(NCc2ccco2)n(Cc2ccco2)c1-c1ccc(Cl)cc1 (centres unmarked) [Compound 4n, Ethyl3-amino-2-(2-(4-chlorophenyl)-1-(furan-2-ylmethyl)-5-((furan-2-ylmethyl)amino)-4-nitro-1H-pyrrol-3-yl)-3-oxopropanoate] | – | 21.9 ± 1.18 | –
COc1cccc(-c2c(C(C#N)C(N)=O)c([N+](=O)[O-])c3n2CCCN3)c1 (centres unmarked) [Compound 4f, 2-cyano-2-(6-(3-methoxyphenyl)-8-nitro-1,2,3,4-tetrahydropyrrolo[1,2-a]pyrimidin-7-yl)acetamide] | 33.5 ± 5.19 | 17.8 ± 2.79 | –
CSc1c([N+](=O)[O-])c(C(C#N)C(N)=O)c(-c2ccc(C)cc2)n1-c1ccc(O)cc1 (centres unmarked) [Compound 4ae, 2-cyano-2-(1-(4-hydroxyphenyl)-5-(methylthio)-4-nitro-2-(p-tolyl)-1H-pyrrol-3-yl)acetamide] | 52.4 ± 5.07 | 17.1 ± 3.49 | IC50 (AChE [1]): 33.1 ± 3.11 µM
CCOC(=O)C(C(N)=O)c1c([N+](=O)[O-])c2n(c1-c1ccccc1)CCCN2 (centres unmarked) [Compound 4g, Ethyl 3-amino-2-(8-nitro-6-phenyl-1,2,3,4-tetrahydropyrrolo[1,2-a]pyrimidin-7-yl)-3-oxopropanoate] | 30.8 ± 5.17 | – | –
N#CC(C(N)=O)c1c(-c2ccc3ccccc3c2)[nH]c(N)c1[N+](=O)[O-] (centres unmarked) [Compound 4y, 2-(5-amino-2-(naphthalen-2-yl)-4-nitro-1H-pyrrol-3-yl)-2-cyanoacetamide] | – | 19.1 ± 4.3 | –
N#CC(C(N)=O)c1c([N+](=O)[O-])c2n(c1-c1ccccc1)CCCN2 (centres unmarked) [Compound 4c, 2-cyano-2-(8-nitro-6-phenyl-1,2,3,4-tetrahydropyrrolo[1,2-a]pyrimidin-7-yl)acetamide] | 39.8 ± 3.69 | – | –
CSc1c([N+](=O)[O-])c(C(C#N)C(N)=O)c(-c2ccc(C)cc2)n1-c1ccc(C)c(C)c1 (centres unmarked) [Compound 4z, 2-cyano-2-(1-(3,4-dimethylphenyl)-5-(methylthio)-4-nitro-2-(p-tolyl)-1H-pyrrol-3-yl)acetamide] | 26.7 ± 5.14 | – | –
Cc1nc2ccccc2c2cc[nH]c12 [G] | – | – | IC50 (AChE [2]; Fig. 3, target per b17 AChE, read-out: IC50): 4.9 ± 0.9 µM
CCOC(=O)C(C(N)=O)c1c([N+](=O)[O-])c2n(c1-c1ccc(C)cc1)CC(C)(C)CN2 (centres unmarked) [Compound 4l, Ethyl3-amino-2-(3,3-dimethyl-8-nitro-6-(p-tolyl)-1,2,3,4-tetrahydropyrrolo[1,2-a]pyrimidin-7-yl)-3-oxopropanoate] | 14.2 ± 2.12 | – | –
CCOC(=O)c1[nH]c(-c2ccccc2)cc1-c1ccccc1 [I] | – | – | IC50 (AChE [2]; Fig. 3, read-out: IC50 against AChE): 128 µM; Ki (AChE [2]; Fig. 3, read-out: Ki against AChE): 104 ± 15.4 µM
COC(=O)C(C(N)=O)c1c([N+](=O)[O-])c2n(c1-c1ccc(C)cc1)CC(C)(C)CN2 (centres unmarked) [Compound 4j, Methyl3-amino-2-(3,3-dimethyl-8-nitro-6-(p-tolyl)-1,2,3,4-tetrahydropyrrolo[1,2-a]pyrimidin-7-yl)-3-oxopropanoate] | 14.9 ± 2.45 | 28.2 ± 3.83 | –
CCOC(=O)C(C(N)=O)c1c([N+](=O)[O-])c(NCc2ccco2)n(Cc2ccco2)c1-c1ccc(C)cc1 (centres unmarked) [Compound 4q, Ethyl3-amino-2-(1-(furan-2-ylmethyl)-5-((furan-2-ylmethyl)amino)-4-nitro-2-(p-tolyl)-1H-pyrrol-3-yl)-3-oxopropanoate] | 17.8 ± 2.44 | 68.4 ± 6.35 | IC50 (BChE): 18.6 ± 2.71 µM
Ethyl3-amino-2-(5-(methylthio)-4-nitro-1-phenyl-2-(p-tolyl)-1H-pyrrol-3-yl)-3-oxopropanoate [Compound 4ak] | – | – | AChE % inhibition at 50 µM (AChE [1]; [3]): 20.79 ± 2.62%; BChE % inhibition at 50 µM (BChE; [3]): 25.56 ± 6.89%
COc1ccc(-n2c(SC)c([N+](=O)[O-])c(C(C#N)C(N)=O)c2-c2ccc(Cl)cc2)cc1 (centres unmarked) [Compound 4aa, 2-(2-(4-chlorophenyl)-1-(4-methoxyphenyl)-5-(methylthio)-4-nitro-1H-pyrrol-3-yl)-2-cyanoacetamide] | 48.6 ± 2.77 | 22.3 ± 3.91 | IC50 (AChE [1]): 54.6 ± 5.71 µM
Cc1ccc(-c2c(C(C#N)C(N)=O)c([N+](=O)[O-])c3n2CCCN3)cc1 (centres unmarked) [Compound 4a, 2-cyano-2-(8-nitro-6-(p-tolyl)-1,2,3,4-tetrahydropyrrolo[1,2-a]pyrimidin-7-yl)acetamide] | 14.7 ± 2.26 | 26.1 ± 4.09 | –
CCOC(=O)C(C(N)=O)c1c([N+](=O)[O-])c(SC)n(-c2ccc(C)cc2)c1-c1ccccc1 (centres unmarked) [Compound 4ai, Ethyl3-amino-2-(5-(methylthio)-4-nitro-2-phenyl-1-(p-tolyl)-1H-pyrrol-3-yl)-3-oxopropanoate] | 24.2 ± 2.23 | – | –

Compound | inhibition at 50 µM (AChE [1]; [3]) [%] | inhibition at 50 µM (BChE; [3]) [%] | also measured
Cc1ccc(-c2c(C(C#N)C(N)=O)c([N+](=O)[O-])c(NCc3ccco3)n2Cc2ccco2)cc1 (centres unmarked) [Compound 4o, 2-cyano-2-(1-(furan-2-ylmethyl)-5-((furan-2-ylmethyl)amino)-4-nitro-2-(p-tolyl)-1H-pyrrol-3-yl)acetamide] | 19.8 ± 4.18 | 46.1 ± 6.43 | IC50 (BChE): 69.2 ± 5.09 µM
CSc1c([N+](=O)[O-])c(C(C#N)C(N)=O)c(-c2ccc(C)cc2)n1-c1ccc(C)cc1 (centres unmarked) [Compound 4ag, 2-cyano-2-(5-(methylthio)-4-nitro-1,2-di-p-tolyl-1H-pyrrol-3-yl)acetamide] | 33.3 ± 2.31 | – | –
COC(=O)C(C(N)=O)c1c([N+](=O)[O-])c(SC)n(-c2ccc(C)c(C)c2)c1-c1ccccc1 (centres unmarked) [Compound 4aj, Methyl3-amino-2-(1-(3,4-dimethylphenyl)-5-(methylthio)-4-nitro-2-phenyl-1H-pyrrol-3-yl)-3-oxopropanoate] | 38.9 ± 5.99 | – | –
CCOC(=O)C(C(N)=O)c1c([N+](=O)[O-])c2n(c1-c1ccccc1)CC(C)(C)CN2 (centres unmarked) [Compound 4d, Ethyl3-amino-2-(3,3-dimethyl-8-nitro-6-phenyl-1,2,3,4-tetrahydropyrrolo[1,2-a]pyrimidin-7-yl)-3-oxopropanoate] | 13.5 ± 1.58 | 13.5 ± 2.96 | –
CC1(C)CNc2c([N+](=O)[O-])c(C(C#N)C(N)=O)c(-c3ccc(Cl)cc3)n2C1 (centres unmarked) [Compound 4e, 2-(6-(4-chlorophenyl)-3,3-dimethyl-8-nitro-1,2,3,4-tetrahydropyrrolo[1,2-a]pyrimidin-7-yl)-2-cyanoacetamide] | 57 ± 5.46 | 18.1 ± 2.89 | IC50 (AChE [1]): 36.3 ± 4.85 µM
CCOC(=O)C(C(N)=O)c1c([N+](=O)[O-])c(SC)n(-c2ccc(OC)cc2)c1-c1ccc(Cl)cc1 (centres unmarked) [Compound 4ac, Ethyl 3-amino-2-(2-(4-chlorophenyl)-1-(4-methoxyphenyl)-5-(methylthio)-4-nitro-1H-pyrrol-3-yl)-3-oxopropanoate] | 11.8 ± 3.92 | 33.8 ± 4.84 | –
CSc1c([N+](=O)[O-])c(C(C#N)C(N)=O)c(-c2ccc(Cl)cc2)n1-c1ccc(C)cc1 (centres unmarked) [Compound 4ah, 2-(2-(4-chlorophenyl)-5-(methylthio)-4-nitro-1-(p-tolyl)-1H-pyrrol-3-yl)-2-cyanoacetamide] | 72.5 ± 3.05 | – | IC50 (AChE [1]): 4.78 ± 1.63 µM
CC1(C)CNc2c([N+](=O)[O-])c(C(C#N)C(N)=O)c(-c3ccccc3)n2C1 (centres unmarked) [Compound 4b, 2-cyano-2-(3,3-dimethyl-8-nitro-6-phenyl-1,2,3,4-tetrahydropyrrolo[1,2-a]pyrimidin-7-yl)acetamide] | 52 ± 4.43 | – | IC50 (AChE [1]): 37.1 ± 3.52 µM
CCOC(=O)C(C(N)=O)c1c([N+](=O)[O-])c(NCc2ccccc2)n(Cc2ccccc2)c1-c1ccc(C)cc1 (centres unmarked) [Compound 4t, Ethyl 3-amino-2-(1-benzyl-5-(benzylamino)-4-nitro-2-(p-tolyl)-1H-pyrrol-3-yl)-3-oxopropanoate] | – | 26.5 ± 5.12 | –
COC(=O)C(C(N)=O)c1c([N+](=O)[O-])c2n(c1-c1ccc(Cl)cc1)CC(C)(C)CN2 (centres unmarked) [Compound 4k, Methyl3-amino-2-(6-(4-chlorophenyl)-3,3-dimethyl-8-nitro-1,2,3,4-tetrahydropyrrolo[1,2-a]pyrimidin-7-yl)-3-oxopropanoate] | 13.3 ± 4.88 | 13.7 ± 2.13 | –
N#CC(C(N)=O)c1c([N+](=O)[O-])c2n(c1-c1ccc(Cl)cc1)CCCN2 (centres unmarked) [Compound 4i, 2-(6-(4-chlorophenyl)-8-nitro-1,2,3,4-tetrahydropyrrolo[1,2-a]pyrimidin-7-yl)-2-cyanoacetamide] | 33.9 ± 6.87 | – | –
Cc1ccc(-c2c(C(C#N)C(N)=O)c([N+](=O)[O-])c3n2CC(C)(C)CN3)cc1 (centres unmarked) [Compound 4h, 2-cyano-2-(3,3-dimethyl-8-nitro-6-(p-tolyl)-1,2,3,4-tetrahydropyrrolo[1,2-a]pyrimidin-7-yl)acetamide] | 45.8 ± 2.81 | – | IC50 (AChE [1]): 67.6 ± 7.54 µM
COC(=O)C(C(N)=O)c1c([N+](=O)[O-])c(SC)n(-c2ccc(C)cc2)c1-c1ccccc1 (centres unmarked) [Compound 4af, Methyl 3-amino-2-(5-(methylthio)-4-nitro-2-phenyl-1-(p-tolyl)-1H-pyrrol-3-yl)-3-oxopropanoate] | 24 ± 4.6 | – | –
N#CC(C(N)=O)c1c([N+](=O)[O-])c(NCc2ccco2)n(Cc2ccco2)c1-c1ccc(Cl)cc1 (centres unmarked) [Compound 4s, 2-(2-(4-chlorophenyl)-1-(furan-2-ylmethyl)-5-((furan-2-ylmethyl)amino)-4-nitro-1H-pyrrol-3-yl)-2-cyanoacetamide] | – | 29.5 ± 3.87 | –
N#CC(C(N)=O)c1c([N+](=O)[O-])c(NCc2ccccc2)n(Cc2ccccc2)c1-c1ccc(Cl)cc1 (centres unmarked) [Compound 4p, 2-(1-benzyl-5-(benzylamino)-2-(4-chlorophenyl)-4-nitro-1H-pyrrol-3-yl)-2-cyanoacetamide] | 18.7 ± 3.52 | – | –
COc1ccc(-c2[nH]c(N)c([N+](=O)[O-])c2C(C#N)C(N)=O)cc1 (centres unmarked) [Compound 4x, 2-(5-amino-2-(4-methoxyphenyl)-4-nitro-1H-pyrrol-3-yl)-2-cyanoacetamide] | 47.7 ± 3.91 | 19.4 ± 3.91 | –
